The text below walks through data of article PMC8533299, “Synthesis, In Silico Study, and Anti-Cancer Activity of Thiosemicarbazone Derivatives” (Biomedicines, 2021).

By IC50 is commonly meant the concentration at which inhibition is half-maximal. One may read the viability as a read-out of living cells in per cent, often relative to untreated cells. Read a low viability as a greater loss of cells.

Structures are written as SMILES. Converted amounts (≈) assume the structure as drawn.

The test system of data set [1] is MCF-7 (Human breast cancer). The experiment in a line: MTT test on MCF-7 cells. The settings on record: MCF7, till 48 h. In kind it is cell-based. The method, then:
(§1) The in vitro anticancer activities of the synthesized compounds were conducted using different cancerous and non-cancerous cell lines viz B16-F0 (Mouse melanoma), mouse Ehrlich Ascites Carcinoma (EAC), MCF-7 (Human breast cancer), MCF-10A (Human breast epithelial cells), and NIH/3T3 (Mouse fibroblast cells). All cell lines were procured from the National Centre for Cell Science, Pune, India. The procured cells were cultured in a six-well culture plate with Dulbecco’s Modified Eagle’s Medium (DMEM) supplemented with 10% fetal bovine serum in a humid CO2 incubator with 5% carbon dioxide at 37 °C.
(§2) The anti-cancer effect and cytotoxicity of both 3-MBTSc and 4-NBTSc compounds were evaluated against different cancerous (MCF-7, EAC, B16-F0 cells) and noncancerous cells (MCF-10A, NIH-3T3 cells) using MTT test. In brief, the stock solutions of both the tested compounds were prepared by dissolving 1 mg of each compound in 1 mL of DMSO separately. Then, four different concentrations (5, 10, 12, and 20 µg/mL) of both compounds were used during the test along with the negative control. Also, 10 μg/mL of doxorubicin (Dox) was used as the positive control during the experiment. Both untreated and treated cells were incubated for next 24 and 48 h. Then, all the steps during the whole experiment were carried out by our earlier reported procedure. Later, the absorbance values were measured by an ELISA reader (Biorad, Hercules, CA, USA) at 570 nm wavelength using secondary wavelength as a reference at 620 nm and the percentages of cell viability was calculated using the following formula [59, 60, 61]. Cell viability (%)= Mean absorbance of treated cells/Mean absorbance of untreated cells × 100
(§3) Based on the cell viability data, the IC50 values of both compounds were calculated on different cancer cells by plotting their corresponding dose-responsive graphs.
The obtained data were statistically analyzed. The descriptive analysis was done and the IC50 values were calculated by fitting the sigmoidal dose responsive graph using GraphPad Prism (GraphPad Software, Inc., La Jolla, CA, USA). […]
(Tetrazolium dyes change colour on reduction, which living cells bring about.)

Data set [2] in a line: MTT cytotoxicity test on MCF-10A cells. In kind it is cell-based, Human. The settings on record: human, MCF-10A breast epithelial cells. The method, then:
as §1, §2

The subject of data set [3] is MCF-10A (Human breast epithelial cells). In words: MTT cytotoxicity test on MCF-10A cells. The settings on record: 48 h. In kind it is cell-based. The method, then: as §1, §2
Data set [4] can be described thus: MTT cytotoxicity test on NIH-3T3 cells. In kind it is cell-based, Mouse. The settings on record: mouse, NIH/3T3 fibroblast cells. The method, then: as §1, §2
The subject of data set [5] is NIH/3T3 (Mouse fibroblast cells). In words: MTT cytotoxicity test on NIH-3T3 cells. In kind it is cell-based. The settings on record: 48 h. The method, then:
as §1, §2

Data set [6] deals with MCF-7, EAC, B16-F0 cells. In words: MTT test, cancer cell lines overall. Particulars: over the cell lines tested; read-out: IC50 (range over treated cells). In kind it is cell-based. The method, then: as §1
The anti-cancer effect and cytotoxicity of both 3-MBTSc and 4-NBTSc compounds were evaluated against different cancerous (MCF-7, EAC, B16-F0 cells) and noncancerous cells (MCF-10A, NIH-3T3 cells) using MTT test. […] Later, the absorbance values were measured by an ELISA reader (Biorad, Hercules, CA, USA) at 570 nm wavelength using secondary wavelength as a reference at 620 nm and the percentages of cell viability was calculated using the following formula [59, 60, 61]. Cell viability (%)= Mean absorbance of treated cells/Mean absorbance of untreated cells × 100
as §3
The obtained data were statistically analyzed. […]

The nature of data set [7]: Solubility of the obtained compound in solvents. In kind it is physicochemical. The method, then: 3-Methoxybenzaldehyde thiosemicarbazone (C9H11N3OS; (2E)-2-(3-methoxybenzylidene) hydrazine carbothioamide) (3MBTSc) was prepared by using the previous procedure with slight modifications. It was prepared by refluxing a mixture of thiosemicarbazide ([…], 0.01 mmol) and 3-Methoxybenzaldehyde (2.67 mL, 0.01 mmol) in a mixture of 20 mL distilled water and 20 mL methanol as the solvent medium in the presence of glacial acetic acid (2–3 mL). The reaction mixture was refluxed for about 3–4 h. After cooling, the yellow crystalline solid separated was filtered, washed, and dried. The yield of the compound was 2.16 g and the obtained compound was insoluble in CHCl3, CCl4, CH3CN, H2O, ethanol, and methanol but it was soluble in DMSO and DHF/THF. The following characterization was carried out to confirm the synthesis of 3-Methoxybenzaldehyde thiosemicarbazone by FTIR (cm^−1): v(NH2) 3403s; 3287s; v(-NH) 3150s; 1599s v(C=N); v(C=S) 1246s, 836s, ^1H-NMR (DMSO-d^6, ppm): 11.40 (s, 1H); 8.19 (s, 2H); 6.95–7.44 (m, ar-H); 3.80 (s, 3H), and ^13C-NMR (DMSO-d^6, ppm): 178.9 (s, C=S), 55.76 (s, OCH3), 111-143 (m-Ph-C), 159.6 (s, C=N).
4-Nitrobenzaldehyde thiosemicarbazone ((2E)-2-(4-nitrobenzylidene) hydrazine carbothioamide) (4NBTSc) was synthesized using earlier reported methods with slight modifications. A mixture of 1.51 g (0.01 mmol) of 4-Nitrobenzaldehyde, and 0.914 g (0.01 mmol) thiosemicarbazide was stirred for 2 h using 15 mL of methanol and 15 mL of distilled water as a solvent medium. The resulting yellow solution was allowed to cool. Then, a yellow crystalline solid separated was filtered, washed with diethyl ether and dried. The yield of the compound was 2.30 g and the obtained compound was insoluble in CHCl3, CCl4, CH3CN, H2O, ethanol, and methanol but it was soluble in DMSO and DHF/THF. The following characterization was carried out to confirm the synthesis of 4-Nitrobenzaldehyde thiosemicarbazone by FTIR (cm^−1): v(NH2) 3499m; 3373s; v(-NH) 3197s; 1588s; 1343s (v(NO2); v(C=N); v(C=S) 1137s, 750s, ^1H-NMR (DMSO-d^6, ppm): 11.66 (s, 1H); 8.38 (s, 2H); 8.32–8.03 (m, ar-H), and ^13C-NMR (DMSO-d^6, ppm): 179 (s, C=S), 128-141 (m-Ph-C), 148.06(s, C=N), 124.23 (s, CH).

Consider `COc1cccc(C=NNC(N)=S)c1` [3-MBTSc, 3-Methoxybenzaldehyde thiosemicarbazone], for which the IC50 in data set [1] is 2.821 ± 0.008 µg/mL (≈ 13.5 µM); in data set [6], 2.82 to 14.2 µg/mL (≈ 13.5 to 68.1 µM). Besides, the viability at 48 h in data set [2] and in data set [4] was more than 80% throughout. In addition, the toxicity entry in data set [3] and in data set [5] was “less than 20%” throughout. Also, in data set [7], the “solubility in CHCl3, CCl4, CH3CN, H2O, ethanol, and methanol” value is “insoluble”. In addition, in data set [7], the “solubility in DMSO and DHF/THF” value is listed as “soluble”.
In the case of `NC(=S)N[N-][CH+]c1ccc([N+](=O)[O-])cc1` [4-NBTSc, 4-Nitrobenzaldehyde thiosemicarbazone], the IC50 in data set [1] was 7.102 ± 0.01 µg/mL (≈ 31.7 µM); in data set [6], 2.8 to 7.59 µg/mL (≈ 12.5 to 33.8 µM). Besides, the viability at 48 h in data set [2] and in data set [4] was more than 80% in each case. Further, the toxicity entry in data set [3] and in data set [5] was “less than 20%” in each case. Also, in data set [7], the “solubility in CHCl3, CCl4, CH3CN, H2O, ethanol, and methanol” value is “insoluble”. The “solubility in DMSO and DHF/THF” value in data set [7] is on record as “soluble”.
